Source: the NIST ThermoML archive (doi:10.1021/je030226s)
Numbers after ± are expanded uncertainties.

Experiments:
[1] = 101.32 kPa, Liquid
[2] = refractive index (Na D-line) (dimensionless); settings: 101.33 kPa, Liquid
[3] = xn = mol fraction of the nth substance listed; settings: 101.32 kPa, Liquid
[4] = refractive index (Na D-line) (dimensionless); xn = mol fraction of the nth substance listed; settings: 101.32 kPa, Liquid

## CCO [ethanol]
[1]; 288.15 K
  mass density: 793.8 ± 0.9 kg/m3
  viscosity: 1.317 ± 0.016 mPa·s
[1]; 298.15 K
  mass density: 785.2 ± 0.9 kg/m3
  viscosity: 1.085 ± 0.014 mPa·s
[1]; 308.15 K
  mass density: 776.6 ± 1 kg/m3
  viscosity: 0.902 ± 0.012 mPa·s
[2]; 288.15 K
  refractive index: 1.363 ± 0.0006
[2]; 298.15 K
  refractive index: 1.3591 ± 0.0006
[2]; 308.15 K
  refractive index: 1.355 ± 0.0006

## CCCCCl [1-chlorobutane]
[1]; 288.15 K
  mass density: 892.2 ± 0.6 kg/m3
  viscosity: 0.472 ± 0.009 mPa·s
[1]; 298.15 K
  mass density: 881 ± 0.7 kg/m3
  viscosity: 0.423 ± 0.008 mPa·s
[1]; 308.15 K
  mass density: 869.7 ± 0.7 kg/m3
  viscosity: 0.382 ± 0.008 mPa·s
[2]; 288.15 K
  refractive index: 1.4045 ± 0.0006
[2]; 298.15 K
  refractive index: 1.3993 ± 0.0006
[2]; 308.15 K
  refractive index: 1.3941 ± 0.0006

## CCCO [propan-1-ol]
[1]; 288.15 K
  mass density: 807.6 ± 0.9 kg/m3
  viscosity: 2.504 ± 0.029 mPa·s
[1]; 298.15 K
  mass density: 799.6 ± 0.9 kg/m3
  viscosity: 1.958 ± 0.023 mPa·s
[1]; 308.15 K
  mass density: 791.5 ± 0.9 kg/m3
  viscosity: 1.548 ± 0.019 mPa·s
[2]; 288.15 K
  refractive index: 1.3869 ± 0.0006
[2]; 298.15 K
  refractive index: 1.3829 ± 0.0006
[2]; 308.15 K
  refractive index: 1.3789 ± 0.0006

## CO [methanol]
[1]; 288.15 K
  mass density: 796.1 ± 0.9 kg/m3
  viscosity: 0.627 ± 0.01 mPa·s
[1]; 298.15 K
  mass density: 786.6 ± 0.9 kg/m3
  viscosity: 0.543 ± 0.009 mPa·s
[1]; 308.15 K
  mass density: 777.2 ± 1 kg/m3
  viscosity: 0.473 ± 0.009 mPa·s
[2]; 288.15 K
  refractive index: 1.3303 ± 0.0006
[2]; 298.15 K
  refractive index: 1.3275 ± 0.0006
[2]; 308.15 K
  refractive index: 1.3254 ± 0.0006

## CCCCO [butan-1-ol]
[1]; 288.15 K
  mass density: 813.5 ± 0.9 kg/m3
  viscosity: 3.394 ± 0.039 mPa·s
[1]; 298.15 K
  mass density: 805.9 ± 0.9 kg/m3
  viscosity: 2.598 ± 0.03 mPa·s
[1]; 308.15 K
  mass density: 798.2 ± 0.9 kg/m3
  viscosity: 2.019 ± 0.024 mPa·s
[2]; 288.15 K
  refractive index: 1.401 ± 0.0006
[2]; 298.15 K
  refractive index: 1.3972 ± 0.0006
[2]; 308.15 K
  refractive index: 1.3932 ± 0.0006

## CCCCCl [1-chlorobutane] + CCCO
[3]; 288.15 K, x2 = 0
  mass density: 892.2 ± 0.6 kg/m3
  viscosity: 0.472 ± 0.009 mPa·s
[3]; 288.15 K, x2 = 0.05
  mass density: 888.3 ± 0.6 kg/m3
  viscosity: 0.473 ± 0.009 mPa·s
[3]; 288.15 K, x2 = 0.1
  mass density: 884.9 ± 0.6 kg/m3
  viscosity: 0.495 ± 0.009 mPa·s
[3]; 288.15 K, x2 = 0.2
  mass density: 878.2 ± 0.7 kg/m3
  viscosity: 0.525 ± 0.009 mPa·s
[3]; 288.15 K, x2 = 0.3
  mass density: 871.2 ± 0.7 kg/m3
  viscosity: 0.587 ± 0.01 mPa·s
[3]; 288.15 K, x2 = 0.4
  mass density: 864 ± 0.7 kg/m3
  viscosity: 0.672 ± 0.01 mPa·s
[3]; 288.15 K, x2 = 0.5
  mass density: 856.3 ± 0.7 kg/m3
  viscosity: 0.795 ± 0.011 mPa·s
[3]; 288.15 K, x2 = 0.6
  mass density: 848.1 ± 0.8 kg/m3
  viscosity: 0.965 ± 0.013 mPa·s
[3]; 288.15 K, x2 = 0.7
  mass density: 839.2 ± 0.8 kg/m3
  viscosity: 1.202 ± 0.015 mPa·s
[3]; 288.15 K, x2 = 0.8
  mass density: 829.6 ± 0.8 kg/m3
  viscosity: 1.503 ± 0.018 mPa·s
[3]; 288.15 K, x2 = 0.9
  mass density: 819.2 ± 0.8 kg/m3
  viscosity: 1.94 ± 0.023 mPa·s
[3]; 288.15 K, x2 = 0.95
  mass density: 813.5 ± 0.9 kg/m3
  viscosity: 2.2 ± 0.026 mPa·s
[3]; 298.15 K, x2 = 0
  mass density: 881 ± 0.7 kg/m3
  viscosity: 0.423 ± 0.008 mPa·s
[3]; 298.15 K, x2 = 0.05
  mass density: 877.2 ± 0.7 kg/m3
  viscosity: 0.426 ± 0.008 mPa·s
[3]; 298.15 K, x2 = 0.1
  mass density: 873.8 ± 0.7 kg/m3
  viscosity: 0.44 ± 0.008 mPa·s
[3]; 298.15 K, x2 = 0.2
  mass density: 867.3 ± 0.7 kg/m3
  viscosity: 0.461 ± 0.009 mPa·s
[3]; 298.15 K, x2 = 0.3
  mass density: 860.5 ± 0.7 kg/m3
  viscosity: 0.511 ± 0.009 mPa·s
[3]; 298.15 K, x2 = 0.4
  mass density: 853.5 ± 0.7 kg/m3
  viscosity: 0.576 ± 0.009 mPa·s
[3]; 298.15 K, x2 = 0.5
  mass density: 846.1 ± 0.8 kg/m3
  viscosity: 0.67 ± 0.01 mPa·s
[3]; 298.15 K, x2 = 0.6
  mass density: 838.3 ± 0.8 kg/m3
  viscosity: 0.802 ± 0.011 mPa·s
[3]; 298.15 K, x2 = 0.7
  mass density: 829.8 ± 0.8 kg/m3
  viscosity: 0.977 ± 0.013 mPa·s
[3]; 298.15 K, x2 = 0.8
  mass density: 820.7 ± 0.8 kg/m3
  viscosity: 1.206 ± 0.015 mPa·s
[3]; 298.15 K, x2 = 0.9
  mass density: 810.7 ± 0.9 kg/m3
  viscosity: 1.531 ± 0.018 mPa·s
[3]; 298.15 K, x2 = 0.95
  mass density: 805.3 ± 0.9 kg/m3
  viscosity: 1.729 ± 0.021 mPa·s
[3]; 308.15 K, x2 = 0
  mass density: 869.7 ± 0.7 kg/m3
  viscosity: 0.382 ± 0.008 mPa·s
[3]; 308.15 K, x2 = 0.05
  mass density: 866 ± 0.7 kg/m3
  viscosity: 0.384 ± 0.008 mPa·s
[3]; 308.15 K, x2 = 0.1
  mass density: 862.6 ± 0.7 kg/m3
  viscosity: 0.395 ± 0.008 mPa·s
[3]; 308.15 K, x2 = 0.2
  mass density: 856.2 ± 0.7 kg/m3
  viscosity: 0.409 ± 0.008 mPa·s
[3]; 308.15 K, x2 = 0.3
  mass density: 849.7 ± 0.8 kg/m3
  viscosity: 0.447 ± 0.008 mPa·s
[3]; 308.15 K, x2 = 0.4
  mass density: 842.9 ± 0.8 kg/m3
  viscosity: 0.498 ± 0.009 mPa·s
[3]; 308.15 K, x2 = 0.5
  mass density: 835.8 ± 0.8 kg/m3
  viscosity: 0.572 ± 0.009 mPa·s
[3]; 308.15 K, x2 = 0.6
  mass density: 828.3 ± 0.8 kg/m3
  viscosity: 0.673 ± 0.01 mPa·s
[3]; 308.15 K, x2 = 0.7
  mass density: 820.3 ± 0.8 kg/m3
  viscosity: 0.804 ± 0.011 mPa·s
[3]; 308.15 K, x2 = 0.8
  mass density: 811.5 ± 0.9 kg/m3
  viscosity: 0.989 ± 0.013 mPa·s
[3]; 308.15 K, x2 = 0.9
  mass density: 802 ± 0.9 kg/m3
  viscosity: 1.229 ± 0.015 mPa·s
[3]; 308.15 K, x2 = 0.95
  mass density: 796.9 ± 0.9 kg/m3
  viscosity: 1.375 ± 0.017 mPa·s
[4]; 288.15 K, x2 = 0
  refractive index: 1.4045 ± 0.0006
[4]; 288.15 K, x2 = 0.05
  refractive index: 1.4036 ± 0.0006
[4]; 288.15 K, x2 = 0.1
  refractive index: 1.4028 ± 0.0006
[4]; 288.15 K, x2 = 0.2
  refractive index: 1.4013 ± 0.0006
[4]; 288.15 K, x2 = 0.3
  refractive index: 1.3998 ± 0.0006
[4]; 288.15 K, x2 = 0.4
  refractive index: 1.3984 ± 0.0006
[4]; 288.15 K, x2 = 0.5
  refractive index: 1.3968 ± 0.0006
[4]; 288.15 K, x2 = 0.6
  refractive index: 1.3952 ± 0.0006
[4]; 288.15 K, x2 = 0.7
  refractive index: 1.3934 ± 0.0006
[4]; 288.15 K, x2 = 0.8
  refractive index: 1.3914 ± 0.0006
[4]; 288.15 K, x2 = 0.9
  refractive index: 1.3892 ± 0.0006
[4]; 288.15 K, x2 = 0.95
  refractive index: 1.3881 ± 0.0006
[4]; 298.15 K, x2 = 0
  refractive index: 1.3993 ± 0.0006
[4]; 298.15 K, x2 = 0.05
  refractive index: 1.3984 ± 0.0006
[4]; 298.15 K, x2 = 0.1
  refractive index: 1.3976 ± 0.0006
[4]; 298.15 K, x2 = 0.2
  refractive index: 1.3962 ± 0.0006
[4]; 298.15 K, x2 = 0.3
  refractive index: 1.3948 ± 0.0006
[4]; 298.15 K, x2 = 0.4
  refractive index: 1.3934 ± 0.0006
[4]; 298.15 K, x2 = 0.5
  refractive index: 1.3919 ± 0.0006
[4]; 298.15 K, x2 = 0.6
  refractive index: 1.3904 ± 0.0006
[4]; 298.15 K, x2 = 0.7
  refractive index: 1.3888 ± 0.0006
[4]; 298.15 K, x2 = 0.8
  refractive index: 1.387 ± 0.0006
[4]; 298.15 K, x2 = 0.9
  refractive index: 1.385 ± 0.0006
[4]; 298.15 K, x2 = 0.95
  refractive index: 1.384 ± 0.0006
[4]; 308.15 K, x2 = 0
  refractive index: 1.3941 ± 0.0006
[4]; 308.15 K, x2 = 0.05
  refractive index: 1.3931 ± 0.0006
[4]; 308.15 K, x2 = 0.1
  refractive index: 1.3923 ± 0.0006
[4]; 308.15 K, x2 = 0.2
  refractive index: 1.3909 ± 0.0006
[4]; 308.15 K, x2 = 0.3
  refractive index: 1.3895 ± 0.0006
[4]; 308.15 K, x2 = 0.4
  refractive index: 1.3882 ± 0.0006
[4]; 308.15 K, x2 = 0.5
  refractive index: 1.3869 ± 0.0006
[4]; 308.15 K, x2 = 0.6
  refractive index: 1.3855 ± 0.0006
[4]; 308.15 K, x2 = 0.7
  refractive index: 1.384 ± 0.0006
[4]; 308.15 K, x2 = 0.8
  refractive index: 1.3824 ± 0.0006
[4]; 308.15 K, x2 = 0.9
  refractive index: 1.3807 ± 0.0006
[4]; 308.15 K, x2 = 0.95
  refractive index: 1.3798 ± 0.0006
